Drawing on publication PMC12525867, “Aromaticity Tuning in Biaryl Monophosphines and Their Derivatives” (Molecules, 2025), this text covers MBC and MIC for three compounds.

One experiment has as its system E. coli ATCC 25922. Put plainly: Antibacterial screening, broth microdilution (MIC/MBC). The experiment is classed as cell-based, Escherichia coli. Particulars: Escherichia coli, ATCC25922; for MIC: E. coli ATCC 25922, MHB, 24 h, 35 °C, read-out: MIC. The procedure: (§1) The antimicrobial activities of a series of compounds 1–5 were tested through the utilization of seven reference species, encompassing both Gram-positive (Staphylococcus aureus ATCC 29213, Staphylococcus epidermidis ATCC 12228, Micrococcus luteus ATCC 10240) and Gram-negative (Escherichia coli ATCC 25922, Klebsiella pneumoniae ATCC 13883, Proteus mirabilis ATCC 12453, Acinetobacter baumannii ATCC 19606) bacteria as model microorganisms. For this purpose, microbial suspensions were prepared in sterile saline (0.85% NaCl) with an optical density of 0.5 McFarland standard, yielding a concentration of 150 × 10^6 CFU/mL (CFU, colony-forming units). All of the stock solutions of the tested compounds were dissolved in DMSO. Amoxicillin (Glentham Life Sciences Ltd., Corsham, UK) was used as a positive control.
(§2) The MIC values of the tested compounds were determined by serial twofold dilutions of 1–5 in Mueller Hinton Broth (MHB, Biomaxima, Lublin, Poland). The range of final 1–5 concentrations used was from 0.49 up to 1000 μg/mL, and for amoxicillin from 0.12 up to 250 μg/mL in the 96-well microtiter plates (Medlab, Raszyn, Poland), starting with 98 μL MHB and 2 μL bacterial inoculum added to each well. Positive controls consisted of 100 μL MHB in each well with the tested compounds at the same concentration range. The negative controls consisted of 100 μL of MHB only. Each set of tests and controls was established with three replicates. The microtiter plates were then subjected to an incubation period of 24 h at a temperature of 35 ± 2 °C. After incubation, the optical density of the microbial growth was measured at a wavelength of 600 nm using a microplate reader, the Biotek Elx800 (BioTek Instruments, Inc., Winooski, VT, USA). The MIC value was defined as the lowest concentration of the tested compound at which there was no visible growth of the tested microorganisms. The determination of the MIC values was achieved by employing the broth microdilution method, in accordance with the recommendations of the European Committee on Antimicrobial Susceptibility Testing (EUCAST). […] Then, the MHA plates were incubated overnight at 35 ± 2 °C. […] The MIC and MBC values were reported in μg/mL, according to the EUCAST reference.

The next experiment relates to K. pneumoniae ATCC 13883. The experiment is described as above. The experiment is classed as cell-based, Klebsiella pneumoniae. Conditions: Klebsiella pneumoniae, ATCC13883; K. pneumoniae ATCC 13883, MHB, 24 h, 35 °C; read-out: MIC. The procedure:
as §1, §2

The test system of another experiment is Gram-positive bacteria. Briefly: Antibacterial screening, summary over the three Gram-positive reference species. The format is cell-based. Particulars: range over three Gram-positive reference species. The protocol:
as §1
The MIC values of the tested compounds were determined by serial twofold dilutions of 1–5 in Mueller Hinton Broth (MHB, Biomaxima, Lublin, Poland). The range of final 1–5 concentrations used was from 0.49 up to 1000 μg/mL, and for amoxicillin from 0.12 up to 250 μg/mL in the 96-well microtiter plates (Medlab, Raszyn, Poland), starting with 98 μL MHB and 2 μL bacterial inoculum added to each well. […] After incubation, the optical density of the microbial growth was measured at a wavelength of 600 nm using a microplate reader, the Biotek Elx800 (BioTek Instruments, Inc., Winooski, VT, USA). […]

In brackets after ≈: the same amount, converted by molar mass.

As to `COc1cc(OC)c(-c2c(P(=O)(C3CCCCC3)C3CCCCC3)c(O)c3ccccc3c2OC)c(OC)c1` [Compound 3, 2-(Dicyclohexylphosphoryl)-4-methoxy-3-(2,4,6-trimethoxyphenyl)naphthalen-1-ol], in the experiment with E. coli ATCC 25922 (E. coli ATCC 25922), the MBC was > 1000 µg/mL. For the same compound, the values for the MIC in the experiment on E. coli ATCC 25922 and in the experiment with K. pneumoniae ATCC 13883 were 250 to 500 µg/mL (≈ 452 to 905 µM) and 500 µg/mL (≈ 905 µM), respectively.
For `COc1cc(OC)c(-c2c(P(=O)(C3CCCCC3)C3CCCCC3)c(OC)c3ccccc3c2OC)c(OC)c1` [Compound 1, Dicyclohexyl[1,4-dimethoxy-3-(2,4,6-trimethoxyphenyl)naphthalen-2-yl]phosphane oxide], the MIC in the experiment on E. coli ATCC 25922 was 500 to 1000 µg/mL (≈ 882 to 1760 µM); with K. pneumoniae ATCC 13883 it was > 1000 µg/mL.
As for `COc1ccccc1-c1c(P(=O)(C2CCCCC2)C2CCCCC2)c(OC)c2ccccc2c1OC` [Compound 2, Dicyclohexyl[1,4-dimethoxy-3-(2-methoxyphenyl)naphthalen-2-yl]phosphane oxide], the MIC with E. coli ATCC 25922 is > 1000 µg/mL; in the experiment with K. pneumoniae ATCC 13883, > 1000 µg/mL; against Gram-positive bacteria, 1.95 to 15.6 µg/mL (≈ 3.85 to 30.9 µM). For the same compound, in the experiment on Gram-positive bacteria, the MBC is > 1000 µg/mL.
